Measured values taken from publication PMC3938723, “Learning from Host-Defense Peptides: Cationic, Amphipathic Peptoids with Potent Anticancer Activity” (PLoS ONE, 2014).
Non-standard residues stand in square brackets, D forms with d. Residues, ends and D or L forms follow the SMILES beside them. Nspe = C[C@H](NCC(=O)O)c1ccccc1; Nphe = O=C(O)CNCc1ccccc1; Nlys = NCCCCNCC(=O)O

Legend:
[1] = system: Primary dermal fibroblast; experiment: MTS cell viability assay, primary dermal fibroblasts; assay type: cell-based; details: for LC50 Primary dermal fibroblast: 72 h
Procedure: (§1) MCF-7, MCF-7/TxT50 and OVCAR-3 (available in ATCC) were kindly provided by Professor Branimir Sikic's lab at Stanford University, and were cultured in McCoy's 5A media (GIBCO) with 10% FBS and antibiotics. Primary dermal fibroblasts were gifts from Lifeline Cell Technology and were cultured <6 passages according to the protocol Lifeline provides. All the cells were cultured in cell incubators (Thermo Scientific) at 37°C with 5% CO2.
(§2) This assay is a colorimetric method for determining the number of viable cells in proliferation. Aliquots of 100 µl media containing 1×10^4 cells were distributed into each well of a 96-well plate (BD Falcon). The following day, when cell density reaches about ∼40% confluency, the cell media were removed and replaced with serial dilutions of peptoid stocks in culturing media. For peptoid dilutions, peptoid stocks were initially diluted in media at 100 µM and then diluted by half in series using a multichannel pipette, and maintained in 100 µl media for each concentration with triple repeats. After peptoid solutions were transferred onto cells in 96-well plates, cells were incubated at 37°C for certain time periods. Then 20 µl of the CellTiter 96 Aqueous Non-Radioactive cell proliferation assay (Promega) reagent which contains a tetrazolium compound, [3-(4,5-dimethylthiazol-2-yl)-5-(3-carboxymethoxyphenyl)-2-(4-sulfophenyl)-2H-tetrazolium, inner salt; MTS(a)], was added to each well and cells were further incubated for 2 h to metabolize. The absorbance of formazan products were measured at 490 nm in a microplate reader (Molecular Devices). Percentage of cell viability = (A -A testblank)/(A control -A blank)×100, where A is the absorbance of the test well and A control the average absorbance of wells with cells not treated with peptoids. A testblank (media, MTS, and diluted peptoids) and A blank (media and MTS) were background absorbances measured in the absence of cells.
(§3) The activity and selectivity of these peptoids against cancer cells were evaluated in vitro. Their cytotoxicity was tested in three cancer cell lines, MCF-7 (human breast cancer), LNCaP (human prostate cancer), and OVCAR-3 (human ovarian cancer). To estimate the selectivity of these peptoids in vitro, hemolytic activities of some peptoids were cited from previously published work (Table 2 **column), and the MRC-5 cell line (human fibroblasts derived from fetal lung tissues) and primary dermal fibroblasts were also tested as normal cell controls. Briefly, cells were treated with peptoids diluted in culturing media for certain time periods, and then cell viability was measured via MTS assays.

OVCAR3 (ovarian cancer) = experiment: MTS cell viability assay, OVCAR3; assay type: cell-based; details: 72 h
Procedure: as §1, §2, §3

MCF-7 (breast cancer) = experiment: MTS cell viability assay, MCF-7; assay type: cell-based; details: 72 h
Procedure: as §1, §2, §3

human red blood cells = details: cited from earlier work
From the text: Table 2 Peptoid Cytotoxicity in cancer cell lines and control cells. | column: HC10 (µM) ** || The chain length is believed to influence not only the activity but also modes of action of cationic, amphipathic peptides, [34]. […] Thus we limited the chain length of peptoids to 13 residues at most, and studied 1 9mer which has the same charge-to-length ratio (CTLR) as peptoid ...

LNCaP (prostate cancer) = experiment: MTS cell viability assay, LNCaP; assay type: cell-based; details: 72 h
Procedure: as §2, §3

[2] = Analytical RP-HPLC elution as relative measure of molecular hydrophobicity; assay type: physicochemical; details: percentage of acetonitrile at elution, analytic RP-HPLC, C18 column, linear water/acetonitrile (0.1% trifluoroacetic acid) gradient 5%-95% acetonitrile over 30 min
From the text: Peptoids were synthesized using an ABI 433A peptide synthesizer (Applied Biosystems, Inc.) on Rink amide MBHA resin (EMD Biosciences, Gibbstown, NJ) using the submonomer protocol, [24]. Briefly, the amine on the nascent chain is bromoacetylated or chloroacetylated followed by SN2 displacement of bromide or chloride by a primary amine to form the side chain. Resin-bound peptoids were then exposed to a mixture of trifluoroacetic acid (TFA): triisopropylsilane: water (95∶2.5∶2.5, volume ratio) for 10 minutes to cleave peptoids from the resin. Crude peptoids were purified by reversed-phase high performance liquid chromatography (RP-HPLC) (Waters Corporation) using a C18 column and a linear acetonitrile/water gradient. A final purity >95% as measured by analytical RP-HPLC (Waters Corporation) was achieved, and the identity of each peptoid was confirmed using electrospray ionization mass spectrometry (ESI/MS). Pexiganan was synthesized by standard Fmoc chemistry on an ABI 433A peptide synthesizer ([…]). Unless indicated otherwise, all reagents were purchased from Sigma Aldrich (St. Louis, MO). Among the submonomers used, Nspe was derived from (S)-N-(1-phenylethyl)amine; Npm from benzylamine ([…]); NHis from histamine (2-[4-imidazolyl]ethylamine); NLeu from isobutylamine; NLys from N-tert-butoxycarbonyl-1,4-butanediamine (CNH Technologies, MA). Guanidinylation of NLys was carried out according to the reported procedure. When NHis was used in the peptoid sequence, chloroacetic acid was used. 5(6)-Carboxyfluorescein was used to label the N-terminus of peptoid 1 [28].
Peptoids were utilized herein as a peptidomimetic scaffold to capture the cationic, amphipathic nature of anticancer peptides, as well as to improve molecular stability and to increase chemical diversity. The design of anticancer peptoids were derived from previous antimicrobial peptoids and were further optimized hererin to improve the activity and selectivity of peptoids against anionic membranes, [24], [25]. […] Several novel variants were designed based on peptoid 1 but with different charges, amphipathicity, length, and helicity to change their activity or selectivity. The sequences of these variants, the solvent composition at RP-HPLC elution as a relative measure of molecular hydrophobicity, molecular net charges and their charge-to-length ratio are summarized in Table 1. […] Pexiganan, a clinically-relevant peptide analog of magainin 2 which was developed for topical treatment for diabetic foot infection, and LL-37, the only known human cathelicidin which is a non-selective antimicrobial peptide, were also tested for comparison.

[3] = system: MRC-5 (fetal lung fibroblast); experiment: MTS cell viability assay, MRC-5; assay type: cell-based; details: 72 h
Procedure: as §1, §2, §3

MCF-7/TxT50 cells = experiment: MTS cell viability in multidrug-resistant MCF-7/TxT50 versus MCF-7; assay type: cell-based, human; details: MTS assay, 72 h treatment
Procedure: as §1
This assay is a colorimetric method for determining the number of viable cells in proliferation. Aliquots of 100 µl media containing 1×10^4 cells were distributed into each well of a 96-well plate (BD Falcon). The following day, when cell density reaches about ∼40% confluency, the cell media were removed and replaced with serial dilutions of peptoid stocks in culturing media. […] The absorbance of formazan products were measured at 490 nm in a microplate reader (Molecular Devices). Percentage of cell viability = (A -A testblank)/(A control -A blank)×100, where A is the absorbance of the test well and A control the average absorbance of wells with cells not treated with peptoids. A testblank (media, MTS, and diluted peptoids) and A blank (media and MTS) were background absorbances measured in the absence of cells. […]
Figure 3 Activity of docetaxel and peptoids in MCF-7 and MCF-7/TxT50 cells. […] Cell viability was measured with MTS assays.

Structure (SMILES) | LC50 Primary dermal fibroblast [1] [µM] | LC50 OVCAR3 (ovarian cancer) (OVCAR3 (ovarian cancer)) [µM] | LC50 MCF-7 (breast cancer) (MCF-7 (breast cancer)) [µM] | HC10 (human red blood cells) [µM] | LC50 LNCaP (prostate cancer) (LNCaP (prostate cancer)) [µM] | HPLC elution [2] [% ACN] | LC50 MRC-5 (fetal lung fibroblast) [3] [µM] | selectivity ratio ([1]; LC50 in primary dermal fibroblast divided by LC50 in cancer cells) | activity in MCF-7/TxT50 (MDR1 overexpressing) compared to wild-type MCF-7 (MCF-7/TxT50 cells)
C[C@@H](c1ccccc1)N(CC(=O)N(CCCCN)CC(=O)N(CC(=O)N(CC(=O)N(CCCCN)CC(=O)N(CC(=O)N(CC(=O)N(CCCCN)CC(=O)N(CC(=O)N(CC(=O)N(CCCCN)CC(N)=O)[C@@H](C)c1ccccc1)[C@@H](C)c1ccccc1)[C@@H](C)c1ccccc1)[C@@H](C)c1ccccc1)[C@@H](C)c1ccccc1)[C@@H](C)c1ccccc1)C(=O)CN(C(=O)CNCCCCN)[C@@H](C)c1ccccc1 [1 13mer, H-(NLys-Nspe-Nspe)4-NLys-NH2] (H-[Nlys][Nspe][Nspe][Nlys][Nspe][Nspe][Nlys][Nspe][Nspe][Nlys][Nspe][Nspe][Nlys]-NH2) | 14 | 9 | 8 | 21 | 8 | 62.8 | 10 | – | –
NCCCCNCC(=O)N(CC(=O)N(CC(=O)N(CCCCN)CC(=O)N(CC(=O)N(CC(=O)N(CCCCN)CC(=O)N(CC(=O)N(CC(=O)N(CCCCN)CC(=O)N(CC(=O)N(CC(N)=O)Cc1ccccc1)Cc1ccccc1)Cc1ccccc1)Cc1ccccc1)Cc1ccccc1)Cc1ccccc1)Cc1ccccc1)Cc1ccccc1 [1 achiral, H-(NLys-Npm-Npm)4-NH2] (H-[Nlys][Nphe][Nphe][Nlys][Nphe][Nphe][Nlys][Nphe][Nphe][Nlys][Nphe][Nphe]-NH2) | 39 | 16 | 13 | 183 | 11 | 59.8 | 30 | ~3 | –
C[C@@H](c1ccccc1)N(CC(=O)N(CC(=O)N(CCCCN)CC(=O)N(CC(=O)N(CC(=O)N(CCCCN)CC(=O)N(CC(=O)N(CC(=O)N(CCCCN)CC(=O)N(CC(=O)N(CC(N)=O)Cc1ccccc1)Cc1ccccc1)Cc1ccccc1)Cc1ccccc1)Cc1ccccc1)Cc1ccccc1)Cc1ccccc1)C(=O)CNCCCCN [1 achiral-Nspe2, H-NLys-Nspe-Npm-(NLys-Npm-Npm)3-NH2] (H-[Nlys][Nspe][Nphe][Nlys][Nphe][Nphe][Nlys][Nphe][Nphe][Nlys][Nphe][Nphe]-NH2) | 36 | 16 | 13 | 160 | 11 | 60.8 | 22 | – | –
C[C@@H](c1ccccc1)N(CC(N)=O)C(=O)CN(CCCCN)C(=O)CN(CCCCN)C(=O)CN(C(=O)CN(C(=O)CN(CCCCN)C(=O)CN(C(=O)CN(CCCCN)C(=O)CN(CCCCN)C(=O)CN(C(=O)CN(C(=O)CNCCCCN)[C@@H](C)c1ccccc1)[C@@H](C)c1ccccc1)[C@@H](C)c1ccccc1)[C@@H](C)c1ccccc1)[C@@H](C)c1ccccc1 [1-NLys5,11, H-(NLys-Nspe-Nspe-NLys-NLys-Nspe)2-NH2] (H-[Nlys][Nspe][Nspe][Nlys][Nlys][Nspe][Nlys][Nspe][Nspe][Nlys][Nlys][Nspe]-NH2) | 34 | 37 | 31 | >100 | 25 | 51.2 | 41 | – | –
C[C@@H](c1ccccc1)N(CC(N)=O)C(=O)CN(C(=O)CN(CCCCN)C(=O)CN(Cc1ccccc1)C(=O)CN(Cc1ccccc1)C(=O)CN(CCCCN)C(=O)CN(C(=O)CN(C(=O)CN(CCCCN)C(=O)CN(Cc1ccccc1)C(=O)CN(Cc1ccccc1)C(=O)CNCCCCN)[C@@H](C)c1ccccc1)[C@@H](C)c1ccccc1)[C@@H](C)c1ccccc1 [1-Npm2,3,8,9, H-(NLys-Npm-Npm-NLys-Nspe-Nspe)2-NH2] | 21 | 11 | 9 | 80 | 10 | 63.3 | 18 | – | –
CC(=O)O[C@@]12CO[C@@H]1C[C@H](O)[C@@]1(C)C(=O)[C@H](O)C3=C(C)[C@@H](OC(=O)[C@H](O)[C@@H](NC(=O)OC(C)(C)C)c4ccccc4)C[C@@](O)([C@@H](OC(=O)c4ccccc4)[C@H]21)C3(C)C [Docetaxel] | – | – | – | – | – | – | – | – | resistant
